For 86 compounds, melting point results are on record in a melting point compilation (Tetko et al.; mined from patent text by program, amines drawn as free bases though some values may be those of a salt).

Take `COc1ccc(-c2cc(=O)c3ccc(OCC(O)CN4CCN(c5ccccc5)CC4)cc3o2)cc1OC` (stereo unspecified): the melting point – broadly, the temperature, or range, at which the solid turns liquid – was 191 to 193 °C. The compound `CCOC(=O)C1=C(C)Nc2nc(N3CCOCC3)nc(N3CCOCC3)c2C1c1ccccc1` (stereo unspecified) displayed a melting point of 178 °C. For `COc1ccc2c(c1)Nc1cccc(S(C)(=O)=O)c1S2` the value was 204 to 206 °C. In turn, `O=C(/C=C/C=C(c1ccc(F)cc1)c1ccc(F)cc1)NCCCCc1cccnc1` yielded a melting point of 155 to 156 °C. Regarding `CC1CCC(C(C)C)C(C(=O)NC(C)(C)C)C1` (stereo unspecified), the melting point was 145 to 146 °C. Compound `O=C1CCc2ccc(OCc3ccccc3)cc21` came in with a melting point of 99 to 101 °C.

On to `COC(=O)CC(SC(C)=O)C(CC(C)C)C(=O)NC1CCCCCCCCCCNC1=O` (stereo unspecified), for which the melting point was in the range of 213 to 216 °C. The result for `CCOC(=O)C(NC=O)C(=O)Nc1ccc(Br)cc1C` (stereo unspecified) reads 174 to 176 °C.

The compound `COC1CC(C(=O)O)Cc2onc(-c3ccc(Cl)cc3)c21` (stereo unspecified) displayed a melting point of 190 to 191 °C. The result for `O=S(=O)(C=Cc1ccccc1)On1nnc2ccccc21` reads 102 to 103 °C. Consider `COc1cccc(C23CCN(C)CC2Cc2c([nH]c(C(=O)NCc4ccccc4)c2C)C3)c1` (stereo unspecified), for which the melting point fell in the range of 162 to 164 °C. As to `CCNC(=O)CC1CN=C(c2cc3cc(Oc4ccc(S(C)(=O)=O)nc4)ccc3[nH]2)S1` (stereo unspecified), the melting point fell in the range of 216 to 217 °C. The result for `CC(=O)OCC(=O)c1ccc(F)cc1F` reads 54 to 56 °C; that for `COc1ccc(-c2nc(S(=O)(=O)c3cccs3)[nH]c2-c2ccc(OC)cc2)cc1`, 179 °C; that for `CCOc1ccc2c(c1)C(C)(c1cc(C(=O)N3CC4CCN(C)C4C3)ccc1Cl)C(=O)N2S(=O)(=O)c1ccc(C(=O)NC(C)(C)C)cc1OC` (stereo unspecified), 130 °C. The result for `N#CCC(C#N)NNc1c(Cl)cc(C(F)(F)F)cc1Cl` (stereo unspecified) reads 101 to 102 °C; that for `CC12CC(=O)NN=C1c1ccc(C#N)cc1C2` (stereo unspecified), 254 °C. For `CCOc1nc(N)nc2c1ncn2CCC(CO)CO` the value was 150 to 152 °C; for `CCC(=O)Nc1cccc2c1C(=O)c1c-2n[nH]c1-c1ccc(OC)cc1`, 287 °C. For the compound `COC(=O)NC(C)(C)c1ccc(C)cc1`, the melting point is 42 to 43 °C. For `O=C(Nc1cccc(-c2ccc(C(=O)O)cc2)c1)OCC1c2ccccc2-c2ccccc21`, the melting point is 110 to 112 °C. On to `CS(=O)(=O)NCC(=O)N[C@@H]1CN2C(=O)N(c3cc(Cl)nc(Cl)c3)C(=O)[C@@]2(Cc2ccc(OC(F)(F)F)cc2)C1`, for which the melting point was 105 °C.

In turn, `CC(C)NC1=NS(=O)(=O)c2ccc(Cc3nc(C4CC4)no3)cc2N1` gave a melting point of 255 to 259 °C.

`COc1cc2c(cc1Br)-c1cc3c(n1CC2)C(=O)N(C(C)(C)C)CCC(C)(C)C3` displayed a melting point of 175 to 177 °C. The result for `COC(=O)C(F)=CC1C(C(=O)O)C1(C)C` (stereo unspecified) reads 89 °C. In turn, `O=C(CC1COC1)N[C@H]1CC[C@H](CCN2CCN(c3cccc4c3OCO4)CC2)CC1` registered a melting point of 190 °C.

`NC(=O)c1ccc(OC2CCN(c3ccncc3)C2)cc1` (stereo unspecified) gave a melting point of 298 to 300 °C. The result for `O=C(c1ccc(Cl)cc1)c1cccc2c1CCCC2C(=O)O` (stereo unspecified) reads 152 to 154 °C; that for `COc1nc2c(C)cc(C)cc2c(-c2ccccc2Cl)c1N(C(N)=O)c1ccc(F)cc1F`, 231 to 232 °C. On to `COc1cc2c(cc1OC)CN(C(c1ccccc1)c1ccccc1)C2`, for which the melting point lay within 126 to 128 °C. For `O=C1Nc2ccccc2N(CCCCCCN2CCCCC2)c2ccccc21` the value was 124 to 125 °C. The result for `O=C(O)C(O)C(Sc1ccc(O)cc1)c1ccccc1CCCCCCCCc1ccccc1` (stereo unspecified) reads 155 to 157 °C; that for `CS(=O)(=O)c1cc(C(=O)O)cc(NCc2ccccc2)c1Cl`, 254 to 256 °C; that for `COc1cc(-c2cnc3[nH]cc(C(=O)C45CC6CC(CC(C6)C4)C5)c3n2)cc(OC)c1OC`, 267 to 268 °C.

`CC(=O)Nc1c(C(=O)c2nccn2C)[nH]c2cc(Cl)ccc12` had a melting point of 205 to 207 °C. For `COCCOc1cc2ncnc(NC3=CC(=O)C(Oc4ccccc4)=CC3=O)c2cc1OC` the value was 177 to 180 °C; for `COc1cc2ncnc(Nc3cccc(N=[N+]=[N-])c3)c2cc1OC`, 110 to 113 °C. In turn, `Cc1ccc2c(c1)c1cc(-c3ccc(Cl)cc3Cl)c(=O)n(C)c1n2CCOC1CCCCO1` (stereo unspecified) showed a melting point of 161 °C. The result for `O=C1CC(c2ccc(Cl)cc2)CO1` (stereo unspecified) reads 52 to 54 °C. In the case of `CC(C)N(CCSc1ccc(F)cc1)C(=O)Oc1ccccc1`, the melting point fell in the range of 53 to 58 °C. The compound `O=C1NC(=O)C(Cc2ccc(N3CCC(NC[C@H](O)COc4cccnc4)CC3)cc2)S1` (stereo partly specified) displayed a melting point of 130 to 132 °C. For `COC(=O)Cc1ccc(O)c(Cl)c1` the value was 35 to 36 °C.

Turning to `Cc1nnc(-c2ccc3ncn(-c4ccc(S(C)=O)cc4)c3c2)o1` (stereo unspecified), the melting point fell in the range of 246 to 247 °C.

The compound `CC[C@H](C)[C@H](NC(=O)O[C@@H](CC(C)C)C(=O)O)C(N)=O` displayed a melting point of 170 to 175 °C. The compound `Cc1ccc(S(=O)(=O)Nc2ccccc2C(=O)C2CC2)cc1` came in with a melting point of 92 to 100 °C. With `CC(Oc1ccc([N+](=O)[O-])cc1)C(=O)O` (stereo unspecified), the melting point fell in the range of 139 to 141 °C. In the case of `C=CCn1c(NCC)nc(N2CCc3ccccc3CC2)c(C#N)c1=O`, the melting point lay in the range of 172 to 177 °C.

The compound `COc1ccc(C2(CCN3CCC(C(=O)c4nc5ccccc5[nH]4)CC3)CCN(C(=O)c3cc(OC)c(OC)c(OC)c3)C2)cc1OC` (stereo unspecified) came in with a melting point of 113 to 116 °C. As to `Nc1cc(C(=O)NCC(=O)O)ccc1F`, the melting point was 150 to 152 °C. On to `O=C(O)c1nc2n(n1)-c1cccnc1N(c1ccccc1Cl)C2`, for which the melting point lay within 155 to 163 °C.

For `NC(=O)N1CCC(c2nn(-c3ccccc3)c3cc(Cl)ccc23)CC1`, the melting point fell in the range of 148 to 150 °C. The compound `CC(C)(C)OC(=O)C=Cc1ccc(C(=O)C(=C(F)F)c2ccccc2)cc1` came in with a melting point of 88 to 94 °C. In the case of `COc1ccc(CCc2cc3c(s2)NC(=S)CN=C3c2ccccc2Cl)cc1`, the melting point fell in the range of 185 to 186 °C.

The compound `CCN(CC)CCn1nc2c3c(c(NC(=O)CN(CCOCc4ccccc4)Cc4ccccc4)ccc31)Oc1ccc(O)cc1-2` showed a melting point of 165 to 168 °C. For `CNC(=S)NS(=O)(=O)c1cc(CCNC(=O)c2cc(Cl)ccc2OC)ccc1-c1ccc(Cl)cc1` the value was 189 to 192 °C; for `O=C(O)C1CCC(=O)N1c1cccc(O)c1` (stereo unspecified), 183 to 185 °C.

With `CCCCOC(=O)NS(=O)(=O)CCc1c(C)nn(C)c1-n1ccc2cc(C(F)(F)F)cnc21`, the melting point fell in the range of 122 to 123 °C.

Compound `CNc1nc(=O)c2cccnc2n1Cc1ccc(F)cc1` yielded a melting point of 242 to 246 °C. For `FC(F)(F)/C(=C(/c1ccccc1)c1ccc(OCCBr)cc1)c1ccccc1` the value was 135 to 138 °C; for `CC(=O)SCC(Cc1noc2ccccc12)C(=O)Nc1cccc(C(=O)O)c1` (stereo unspecified), 185 to 187 °C; for `O=C(c1ccccc1)c1cc([N+](=O)[O-])ccc1-n1nc(CN2C(=O)c3ccccc3C2=O)cc1CN1C(=O)c2ccccc2C1=O`, 220 to 224 °C. On to `CN(C)CC=CC(=O)Nc1ccc2ncc(C#N)c(Nc3cccc(Br)c3)c2c1`, for which the melting point is 209 to 211 °C. The result for `CCc1nn(-c2cc(NC(=O)c3ccccc3)ccc2Br)c(=O)n1Cc1ccc(-c2ccccc2S(=O)(=O)NC(=O)OC(C)(C)C)cc1F` reads 154 to 156 °C. The compound `O=C(/C=C/c1ccc(O)cc1Cl)CC(=O)/C=C/c1ccc(O)cc1Cl` yielded a melting point of 248 to 254 °C. For `CCC(CC)NC(=O)c1ccc(-c2scc(-c3ccccc3Cl)c2CC(=O)NC(=N)NCCCO)cc1` the value was 109 to 110 °C; for `CCc1cc2c(s1)SCC1CC(=O)N(c3ccc(Cl)cc3)N=C21` (stereo unspecified), 138 to 141 °C. Compound `CC(C)CN(C(=O)N(CCCl)N=O)C1OC(OC2CCCCC2)C(O)C(O)C1O` (stereo unspecified) registered a melting point of 74 to 76 °C. For `CN(C)c1ccc(/C=C/c2nc3cc(Cl)ccc3s2)cc1` the value was 182 to 184 °C; for `O=C(Nc1ccc(N2CCSC2)c(F)c1)OCc1ccccc1`, 90 to 92 °C. In turn, `CNC(=O)Nc1cccc(C2=NC(C)(C)Cc3cc(OC)c4c(c32)CC(C)(C)O4)c1` showed a melting point of 125 to 127 °C. `O=C1CCc2c(F)cc(F)cc2C1`: the melting point was 46 °C.

Compound `CC(=O)Nc1ccc(/C=C/C(=O)NC/C=C(/C)c2ccc(C)c(CO)c2C)cn1` displayed a melting point of 160 to 165 °C. For `CCCCC(Sc1cc(C(C)(C)C)c(O)c(C(C)(C)C)c1)C(=O)O` (stereo unspecified) the value was 140 to 142 °C; for `Nc1cc(-c2c[nH]cn2)ccn1`, 193 to 196 °C; for `CC(C#N)=Cc1ccc(C=O)cc1`, 63 to 64 °C. On to `CCN(CC)CCN1Cc2nc3ccccc3c(=O)n2-c2ccccc2C1=O`, for which the melting point lay within 117 to 119 °C. For `CC(c1ccc(Cl)cc1)N1C(=O)CC(Br)C1=O` (stereo unspecified) the value was 96 °C; for `CC(CC#CC(C)(C)O)C1=CCC2C3=CC=C4CC(O)CCC4(C)C3CCC12C` (stereo unspecified), 185 to 192 °C; for `COC(=O)CCc1cn(Cc2ccc(C(=O)O)cc2OC)c2cc(C(=O)NCC3CCCC3)ccc12`, 181 to 182 °C. The result for `CC(=O)c1cc(Cl)c(N)c2c1OCCO2` reads 133 to 136 °C; that for `COc1ccc(C(=O)n2c3c(c4ccccc42)CC(C(=O)O)(C(=O)O)CC3)cc1`, 205 to 207 °C; that for `Cc1ccc(-c2nc(C#N)c(-c3cccc(Cl)c3)n2-c2cc(Cl)ccc2C)cc1C`, 218 °C. For `COC(=O)c1cc(Cl)cc2c1OC(C)C(=O)N2C` (stereo unspecified) the value was 128 to 130 °C; for `O=C(NCCO)c1cc(-c2ccnc(Nc3cccc(OC(F)(F)C(F)F)c3)n2)ccn1`, 159 °C. Take `CC(C)c1cc2c(cc1O)C(=O)CCC2`: the melting point lay in the range of 149 to 150 °C.

For `Cc1cc2cc(OCC(=O)O)c(Cl)c(Cl)c2s1`, the melting point was in the range of 215 to 216 °C.
